Measurements published in US20230049952A1, “METHODS AND COMPOUNDS FOR RESTORING MUTANT P53 FUNCTION” (PMV Pharmaceuticals, Inc., priority 2020, published 2023).
Read-outs that look alike come from different tables or passages of the source. One block for each compound: values may come before it.

Tests used:
[1] = test system: CYP enzymes in human liver microsomes; settings: HLM, probe S-Mephenytoin 25 μM
Protocol: Pooled HLM were stored at −80° C. until use. […] The reaction was initiated by adding NADPH, followed by incubation at 37° C.
Corrected CLint=Raw CLint−Negative Control CLint; Δ CLint=CLHint(TA+NADPH−Inhibitor)−CLint (TA+NADPH+Inhibitor).

p53 in HCT116 = assay: p53 (DO-1) Western blot; format: cell-based, human; settings: HCT116 + RG7388 50 nM, 24 hr
Protocol: (§1) Protein samples were quantified using BCA.
(§2) Western blot: For each cell line, 10 μg of total protein were run on a 4-12% Bis-Tris precast gel. The gel was transferred to a nitrocellulose membrane. The membrane was blocked for 1 hour using the Odyssey TBS blocking solution. Membranes were incubated overnight in p53 (p53, DO-1) and actin (beta-actin) primary antibodies. The next day, blots were washed and incubated in either goat anti-mouse for p53 or goat-anti-rabbit for actin secondaries antibodies. Blots were then washed and imaged using an Odyssey CLx imaging system. Bands were quantified using Image Studio software and normalized to the actin control. The p53 or actin levels were then normalized to the NUGC3 band and graphed using Prism.
(§3) Since p53 protein pools are strongly autoregulated by degradation by the transcriptional target MDM2, pools of p53 accumulate to high levels in cells with mutant p53.

p53 in SJSA1 = assay: p53 (DO-1) Western blot; format: cell-based, human; settings: SJSA1 + RG7388 50 nM, 24 hr
Protocol: as §1, §2, §3

OATP1B1 = molecular target: T1, OATP1B1 (Homo sapiens, UniProt Q9Y6L6); assay: uptake transporter inhibition assessment, transfected HEK293; settings: inhibitor 10 μM
T1 sequence (Q9Y6L6 1-691): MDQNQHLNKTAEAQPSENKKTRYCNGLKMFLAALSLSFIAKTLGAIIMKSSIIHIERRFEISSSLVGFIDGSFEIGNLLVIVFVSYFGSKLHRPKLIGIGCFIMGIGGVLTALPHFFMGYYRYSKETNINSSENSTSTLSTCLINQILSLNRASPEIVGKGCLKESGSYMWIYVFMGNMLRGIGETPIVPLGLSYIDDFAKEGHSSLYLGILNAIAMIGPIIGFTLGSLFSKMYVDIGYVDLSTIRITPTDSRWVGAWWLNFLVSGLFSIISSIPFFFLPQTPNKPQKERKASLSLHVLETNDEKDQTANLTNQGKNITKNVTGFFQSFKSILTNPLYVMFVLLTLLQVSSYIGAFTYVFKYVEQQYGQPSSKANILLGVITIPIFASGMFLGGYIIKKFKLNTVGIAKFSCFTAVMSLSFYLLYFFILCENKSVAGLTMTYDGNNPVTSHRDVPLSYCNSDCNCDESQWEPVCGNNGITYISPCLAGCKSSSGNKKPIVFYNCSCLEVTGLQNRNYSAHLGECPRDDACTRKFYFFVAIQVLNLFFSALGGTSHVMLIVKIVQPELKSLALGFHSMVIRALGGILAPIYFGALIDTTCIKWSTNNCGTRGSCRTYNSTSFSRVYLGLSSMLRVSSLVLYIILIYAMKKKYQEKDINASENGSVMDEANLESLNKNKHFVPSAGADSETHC

OATP1B3 = molecular target: T2, OATP1B3 (Homo sapiens, UniProt Q9NPD5); assay: as above; settings: inhibitor 10 μM
T2 sequence (Q9NPD5 1-702): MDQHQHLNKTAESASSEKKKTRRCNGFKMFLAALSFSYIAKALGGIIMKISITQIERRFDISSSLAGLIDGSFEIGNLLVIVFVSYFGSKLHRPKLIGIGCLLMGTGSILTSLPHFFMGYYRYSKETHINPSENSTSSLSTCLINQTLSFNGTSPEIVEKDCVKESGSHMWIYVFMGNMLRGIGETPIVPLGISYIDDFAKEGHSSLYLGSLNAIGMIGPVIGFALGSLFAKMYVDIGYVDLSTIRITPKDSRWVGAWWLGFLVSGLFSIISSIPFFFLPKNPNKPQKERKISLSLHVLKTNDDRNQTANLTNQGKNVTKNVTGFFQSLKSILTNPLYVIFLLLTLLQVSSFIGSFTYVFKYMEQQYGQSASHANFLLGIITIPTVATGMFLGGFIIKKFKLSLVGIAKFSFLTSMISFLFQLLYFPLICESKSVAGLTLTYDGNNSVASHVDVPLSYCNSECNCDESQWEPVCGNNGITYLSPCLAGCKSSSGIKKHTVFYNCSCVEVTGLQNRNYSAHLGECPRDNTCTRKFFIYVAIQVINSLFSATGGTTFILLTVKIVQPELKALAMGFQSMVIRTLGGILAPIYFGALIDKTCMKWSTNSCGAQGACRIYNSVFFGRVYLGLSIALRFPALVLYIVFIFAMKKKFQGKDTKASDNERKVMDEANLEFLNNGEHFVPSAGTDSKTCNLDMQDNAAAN

CYP2C8 = molecular target: T3, CYP2C8 (Homo sapiens, UniProt P10632); assay: in vitro; settings: both, microsomes, pH 7.4
T3 sequence (P10632 1-490): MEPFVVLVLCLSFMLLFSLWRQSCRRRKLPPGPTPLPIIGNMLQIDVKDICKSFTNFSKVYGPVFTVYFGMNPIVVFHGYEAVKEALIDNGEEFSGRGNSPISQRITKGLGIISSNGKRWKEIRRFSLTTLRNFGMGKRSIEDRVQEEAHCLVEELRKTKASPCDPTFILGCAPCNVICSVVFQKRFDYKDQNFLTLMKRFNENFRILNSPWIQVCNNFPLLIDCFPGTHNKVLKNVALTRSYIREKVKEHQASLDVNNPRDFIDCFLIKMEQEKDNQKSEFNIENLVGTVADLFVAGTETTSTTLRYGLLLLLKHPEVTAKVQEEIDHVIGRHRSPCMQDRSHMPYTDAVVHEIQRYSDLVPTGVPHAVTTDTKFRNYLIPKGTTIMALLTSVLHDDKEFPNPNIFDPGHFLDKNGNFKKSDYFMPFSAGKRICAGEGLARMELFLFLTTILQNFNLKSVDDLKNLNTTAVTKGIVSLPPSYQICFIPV

CYP2C9 = CYP2C9 (Homo sapiens, UniProt P11712); assay: CYP inhibition in human liver microsomes; format: in vitro ADME; parameters: from tissue; host or cells: pooled human liver microsomes, 200 donors; settings: both sexes, pooled human liver microsomes, pH 7.4, HLM, read-out: % of Control Enzyme Activity
Protocol: The HLMs were stored at −80° C. until use.
Negative (vehicle) controls were conducted without a test article.

OCT2 = molecular target: T4, OCT2 (Homo sapiens, UniProt O15244); settings: 2 min/5 μM
T4 sequence (O15244 1-555): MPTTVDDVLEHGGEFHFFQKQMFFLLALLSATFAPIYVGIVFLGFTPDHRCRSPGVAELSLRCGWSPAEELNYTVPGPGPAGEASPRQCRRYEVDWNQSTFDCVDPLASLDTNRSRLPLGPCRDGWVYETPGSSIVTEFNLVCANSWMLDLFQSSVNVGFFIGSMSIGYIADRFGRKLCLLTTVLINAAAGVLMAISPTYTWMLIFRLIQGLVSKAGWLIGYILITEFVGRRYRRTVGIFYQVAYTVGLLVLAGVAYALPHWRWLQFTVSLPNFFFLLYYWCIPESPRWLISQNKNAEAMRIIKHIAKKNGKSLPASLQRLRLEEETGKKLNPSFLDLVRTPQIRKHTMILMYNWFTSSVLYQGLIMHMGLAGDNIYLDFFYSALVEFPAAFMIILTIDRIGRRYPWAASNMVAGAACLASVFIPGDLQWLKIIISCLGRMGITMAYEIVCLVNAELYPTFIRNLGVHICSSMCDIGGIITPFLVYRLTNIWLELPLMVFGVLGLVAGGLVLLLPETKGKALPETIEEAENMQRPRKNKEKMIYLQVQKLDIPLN
Protocol: All experiments were conducted in duplicate (n=2). The cells were incubated for the indicated time in a humidified incubator (37° C. 5% CO2). […] The uptake incubation was stopped by two washes with ice-cold HBSSg.

CYP2D6 = CYP2D6 (Homo sapiens, UniProt P10635); assay: CYP inhibition in human liver microsomes; format: in vitro ADME; parameters: from tissue; host or cells: pooled human liver microsomes, 200 donors; settings: both sexes, pooled human liver microsomes, pH 7.4, HLM, read-out: % of Control Enzyme Activity
human hepatocytes = assay: cell viability (MTS) after CYP induction treatment of human hepatocytes; settings: after CYP1A2 induction treatment
Protocol: Cell Viability Assay: After the CYP induction treatment and enzyme activity assay, the cells were used for a cell viability assay. The viability of cells, expressed as the percentage of MTS absorbance relative to vehicle control, was measured as described above.

[2] = +NADPH −Inhibitor, Maximum Metabolism
[3] = −NADPH −Inhibitor, Negative Control

CYP2D6, sequence (P10635 whole entry): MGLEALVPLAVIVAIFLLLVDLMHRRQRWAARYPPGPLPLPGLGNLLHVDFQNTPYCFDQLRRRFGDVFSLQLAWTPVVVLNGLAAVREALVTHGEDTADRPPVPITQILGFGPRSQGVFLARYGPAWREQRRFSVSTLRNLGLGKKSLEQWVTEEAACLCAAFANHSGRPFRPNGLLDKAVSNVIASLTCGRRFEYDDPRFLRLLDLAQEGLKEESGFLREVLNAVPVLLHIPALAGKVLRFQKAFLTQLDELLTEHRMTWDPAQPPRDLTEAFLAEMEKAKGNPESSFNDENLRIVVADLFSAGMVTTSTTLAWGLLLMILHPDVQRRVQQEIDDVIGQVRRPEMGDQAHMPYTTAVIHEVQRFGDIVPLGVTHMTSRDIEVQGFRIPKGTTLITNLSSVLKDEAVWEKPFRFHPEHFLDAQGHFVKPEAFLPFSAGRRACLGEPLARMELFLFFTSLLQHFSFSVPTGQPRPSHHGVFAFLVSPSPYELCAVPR
CYP2C9, sequence (P11712 whole entry): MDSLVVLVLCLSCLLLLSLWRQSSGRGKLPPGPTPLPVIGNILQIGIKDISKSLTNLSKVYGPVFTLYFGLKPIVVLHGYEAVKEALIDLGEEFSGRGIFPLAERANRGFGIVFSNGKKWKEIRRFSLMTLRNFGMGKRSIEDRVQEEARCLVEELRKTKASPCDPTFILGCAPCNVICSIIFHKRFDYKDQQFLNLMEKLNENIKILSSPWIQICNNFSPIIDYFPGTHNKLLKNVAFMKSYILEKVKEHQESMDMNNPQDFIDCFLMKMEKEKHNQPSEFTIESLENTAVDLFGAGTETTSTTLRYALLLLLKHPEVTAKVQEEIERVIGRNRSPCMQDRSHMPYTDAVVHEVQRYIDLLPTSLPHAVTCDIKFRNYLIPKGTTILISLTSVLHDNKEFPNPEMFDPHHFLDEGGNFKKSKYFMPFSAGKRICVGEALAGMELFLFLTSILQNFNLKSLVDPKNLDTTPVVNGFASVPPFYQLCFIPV

SMILES: CC[C@@]1(c2ccccc2)NC(=O)N(C)C1=O [S-Mephenytoin]
Formation Rate (4′-OH Mephenytoin) [1, 2]: 39.8 pmol/min/mg protein | Measured Metabolite (4′-OH Mephenytoin) [1, 2]: 0.398 µM | Formation Rate (4′-OH Mephenytoin) [1, 3]: 0 pmol/min/mg protein | Measured Metabolite (4′-OH Mephenytoin) [1, 3]: 0 µM

SMILES: COc1cc(C(=O)O)ccc1NC(=O)[C@@H]1N[C@@H](CC(C)(C)C)[C@](C#N)(c2ccc(Cl)cc2F)[C@H]1c1cccc(Cl)c1F [RG7388]
DO1/Actin (p53 in HCT116): 0.065 | DO1 band density (p53 in HCT116): 1300 | normalized DO1/Actin (p53 in HCT116; normalized to NUGC3): 0.524 | DO1/Actin (p53 in SJSA1): 0.008 | DO1 band density (p53 in SJSA1): 94.5 | normalized DO1/Actin (p53 in SJSA1; normalized to NUGC3): 0.068

Percent Inhibition (OATP1B1; probe Atorvastatin ([…])): 94.8 | Influx Rate AVG (OATP1B1; probe Atorvastatin ([…]), OATP1B1-transfected HEK cells): 1.12 pmol/minute/mg protein | Influx Rate AVG (OATP1B1; probe Atorvastatin ([…]), Vector Control cells): 0.769 pmol/minute/mg protein | Percent Inhibition (OATP1B3; probe atorvastatin (0.1 μM per TABLE 176)): 94.8 | Influx Rate AVG (OATP1B3; probe atorvastatin (0.1 μM per TABLE 176), OATP1B3-transfected HEK cells): 0.991 pmol/minute/mg protein | Influx Rate AVG (OATP1B3; probe atorvastatin (0.1 μM per TABLE 176), Vector Control cells): 0.769 pmol/minute/mg protein
SMILES: CO[C@H]1/C=C/O[C@@]2(C)Oc3c(C)c([O-])c4c(O)c(cc(O)c4c3C2=O)NC(=O)/C(C)=C\C=C\[C@H](C)[C@H](O)[C@@H](C)[C@@H](O)[C@@H](C)[C@H](OC(C)=O)[C@@H]1C.[Na+] [Rifamycin SV]
Inhibition Potential Classification (OATP1B1): Positive (Percent inhibition≥50%: Positive) | Inhibition Potential Classification (OATP1B3): Positive (Percent inhibition≥50%: Positive)

SMILES: CC(C)(O)c1ccccc1CC[C@@H](SCC1(CC(=O)O)CC1)c1cccc(/C=C/c2ccc3ccc(Cl)cc3n2)c1 [Montelukast, montelukast]
activity at 20 min, 0.123 µM (CYP2C8): 54% | activity at 20 min, 0.37 µM (CYP2C8): 26.8% | activity at 20 min, 3.33 µM (CYP2C8): 4.22% | activity at 20 min, 10 µM (CYP2C8): 2.17%

SMILES: Nc1ccc(S(=O)(=O)Nc2ccnn2-c2ccccc2)cc1 [Sulfaphenazole, sulfaphenazole]
activity at 20 min, 0.123 µM (CYP2C9; 0.123 μM): 76.9% | activity at 20 min, 0.37 µM (CYP2C9; 0.370 μM): 55.4% | activity at 20 min, 3.33 µM (CYP2C9; 3.33 μM): 16.3% | activity at 20 min, 10 µM (CYP2C9; 10.0 μM): 7.69%

SMILES: C[n+]1ccc(-c2ccccc2)cc1 [MPP, MPP+]
Substrate Assessment (OCT2): Positive (Influx Rate Ratio≥2.0: Positive) | Influx Rate AVG (OCT2; OCT2 cells): 403 pmol/minute/mg/protein | Influx Rate Ratio (OCT2; OCT2 vs Vector Control): 16.6 | Influx Rate AVG (OCT2; Vector Control cells): 24.3 pmol/minute/mg/protein

SMILES: C=C[C@H]1C[N@@]2CC[C@H]1C[C@@H]2[C@@H](O)c1ccnc2ccc(OC)cc12 [Quinidine, quinidine]
activity at 20 min, 0.123 µM (CYP2D6; 0.123 μM): 30.6% | activity at 20 min, 0.37 µM (CYP2D6; 0.370 μM): 17.7% | activity at 20 min, 3.33 µM (CYP2D6; 3.33 μM): 8.69% | activity at 20 min, 10 µM (CYP2D6; 10.0 μM): 7.28%

SMILES: COc1ccc2[nH]c([S+]([O-])Cc3ncc(C)c(OC)c3C)nc2c1 (stereo not shown) [OME]
Formazan Absorbance (n = 3) Mean (human hepatocytes; Donor 1, 50 μM): 0.494 | Formazan Absorbance (n = 3) Mean (human hepatocytes; Donor 2, 50 μM): 0.800 | Formazan Absorbance (n = 3) Mean (human hepatocytes; Donor 3, 50 μM): 0.433
